In PMC4177392, “Modulation of Cytochrome P450 Metabolism and Transport across Intestinal Epithelial Barrier by Ginger Biophenolics” (PLoS ONE, 2014):
≈ marks a conversion by molar mass, not a printed value.

Key:
[1] = molecular target: CYP2E1 (Homo sapiens, UniProt P05181); test: CYP2E1 inhibition in human liver microsomes (substrate chlorzoxazone); details: for IC50 CYP2E1: human liver microsomes, substrate chlorzoxazone, positive control
Experimental: (§1) Stock solution for each CYP specific probe substrate was prepared in such a way that the final concentration is below the reported Km value.
(§2) A microsome-buffer-substrate mixture (MBS mix) was prepared for each isozyme by pre-mixing appropriate volumes of sodium phosphate buffer (pH 7.4, 50 mM), microsomes and substrate (Table S2 in File S1). 179 µL of MBS mix was transferred to 96-well reaction plate to which 1 µL of inhibitor stock solution was added to achieve the final target inhibitor concentration. The reaction plate was pre-incubated for 10 min at 37°C followed by reaction initiation by addition of 20 µL of 10 mM NADPH solution. The reaction plate was then incubated at 37°C for a predetermined time period following which it was quenched with 200 µL ACN for all CYPs and 200 µL 1% formic acid in water∶ACN (70∶30) for CYP1A2. In all cases, the final incubations after addition of substrate and inhibitor contained 0.1% DMSO (v/v), and the total organic solvent (DMSO and ACN) content was less than or equal to 1% (v/v). The details of final substrate concentration, incubation time, microsomal protein concentration in the reaction mixtures and the metabolites monitored for each isozyme tested are presented in Table S3 in File S1.
(§3) All samples were processed using protein precipitation method and analyzed by employing positive (for all CYPs) and negative (for CYP2A6, 2C19 and 2E1) ionization mode in liquid chromatography tandem mass spectrometry (API4000, Applied Biosystems, USA). The peak area ratio of analyte to IS was used for calculations. An isocratic method comprising 5 mM ammonium formate and ACN (40∶60) with 0.05% formic acid was used for elution. For CYP2C19, a mobile phase consisting of 5 mM ammonium formate and ACN (30∶70) was used. The analytes and internal standards were retained on BDS Hypersil Phenyl (150×4.6 mm, 5 µ, Thermo, USA) column. A flow rate of 0.5 mL/min (CYP1A2), 0.6 mL/min (CYP2C19, CYP2E1), 0.7 mL/min (CYP2C9), 0.8 mL/min (CYP2A6, CYP3A), 1.0 mL/min (CYP2B6, CYP2C8, CYP2D6) was maintained using Shimadzu Prominence solvent delivery system (LC-20AD). The mobile phase was degassed using degasser (DGU-20A3), samples were loaded into autosampler (SIL-HTc) and the column temperature was maintained at 40°C by column oven (CTO-20A). Injection volumes for the samples were as follows: 5 µL (CYP1A2, CYP2D6, and CYP3A), 10 µL (CYP2B6, CYP2C8, and CYP2E1) and 20 µL (CYP2A6, CYP2C9, and CYP2C19). Data was collected and processed using Sciex Analyst 1.4.2. All the structures of inhibitors, substrates, metabolites and internal standards for each CYP enzyme are represented in Table S6 in File S1.
The IC50 value was estimated from the percentage reduction in CYP activity at eleven inhibitor concentrations with respect to control.
(§4) The data was analysed using 4PL (parameter logistic model), 3PLFB (bottom fixed), 3PLFT (top fixed), 2PL (top and bottom fixed), and the relative IC50 was with lowest standard error was further manipulation. Absolute IC50 was calculated from this relative IC50 by using the equation below: [drawing 3]

[2] = molecular target: T1, CYP2A6 (Homo sapiens, UniProt P11509); test: CYP2A6 inhibition in human liver microsomes (substrate coumarin); assay type: in vitro ADME
T1 sequence (P11509 1-494): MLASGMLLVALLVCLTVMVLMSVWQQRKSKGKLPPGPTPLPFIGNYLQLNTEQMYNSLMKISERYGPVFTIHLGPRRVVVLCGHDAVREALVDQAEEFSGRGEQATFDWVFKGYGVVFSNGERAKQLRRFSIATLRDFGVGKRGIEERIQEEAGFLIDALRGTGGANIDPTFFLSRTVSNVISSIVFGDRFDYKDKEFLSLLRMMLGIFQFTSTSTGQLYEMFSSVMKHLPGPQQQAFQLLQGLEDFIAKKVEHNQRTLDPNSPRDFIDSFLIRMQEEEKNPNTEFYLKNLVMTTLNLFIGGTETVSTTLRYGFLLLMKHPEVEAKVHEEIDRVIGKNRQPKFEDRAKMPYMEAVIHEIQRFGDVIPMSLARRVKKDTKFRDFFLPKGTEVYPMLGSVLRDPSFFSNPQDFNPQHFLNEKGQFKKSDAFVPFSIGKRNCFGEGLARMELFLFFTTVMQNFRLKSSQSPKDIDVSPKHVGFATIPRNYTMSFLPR
Experimental: (§5) The highest concentration of GE used in the assay was 500 µg/mL equivalent. Stock solution for each CYP specific probe substrate was prepared in such a way that the final concentration is below the reported Km value.
(§6) A microsome-buffer-substrate mixture (MBS mix) was prepared for each isozyme by pre-mixing appropriate volumes of sodium phosphate buffer (pH 7.4, 50 mM), microsomes and substrate (Table S2 in File S1). 179 µL of MBS mix was transferred to 96-well reaction plate to which 1 µL of inhibitor stock solution was added to achieve the final target inhibitor concentration. The reaction plate was pre-incubated for 10 min at 37°C followed by reaction initiation by addition of 20 µL of 10 mM NADPH solution. The reaction plate was then incubated at 37°C for a predetermined time period following which it was quenched with 200 µL ACN for all CYPs and 200 µL 1% formic acid in water∶ACN (70∶30) for CYP1A2. In all cases, the final incubations after addition of substrate and inhibitor contained 0.1% DMSO (v/v), and the total organic solvent (DMSO and ACN) content was less than or equal to 1% (v/v). […] The incubations were performed in singlet for individual gingerols and in duplicate for GE along with respective positive controls.

[3] = molecular target: CYP2D6 (Homo sapiens, UniProt P10635); test: CYP2D6 inhibition in human liver microsomes (substrate dextromethorphan); assay type: in vitro ADME; details: IC50 CYP2D6, human liver microsomes; substrate dextromethorphan; gingerols and GE
Experimental: as §5
(§7) A microsome-buffer-substrate mixture (MBS mix) was prepared for each isozyme by pre-mixing appropriate volumes of sodium phosphate buffer (pH 7.4, 50 mM), microsomes and substrate (Table S2 in File S1). 179 µL of MBS mix was transferred to 96-well reaction plate to which 1 µL of inhibitor stock solution was added to achieve the final target inhibitor concentration. The reaction plate was pre-incubated for 10 min at 37°C followed by reaction initiation by addition of 20 µL of 10 mM NADPH solution. The reaction plate was then incubated at 37°C for a predetermined time period following which it was quenched with 200 µL ACN for all CYPs and 200 µL 1% formic acid in water∶ACN (70∶30) for CYP1A2. In all cases, the final incubations after addition of substrate and inhibitor contained 0.1% DMSO (v/v), and the total organic solvent (DMSO and ACN) content was less than or equal to 1% (v/v). The details of final substrate concentration, incubation time, microsomal protein concentration in the reaction mixtures and the metabolites monitored for each isozyme tested are presented in Table S3 in File S1. The incubations were performed in singlet for individual gingerols and in duplicate for GE along with respective positive controls.
(§8) All samples were processed using protein precipitation method and analyzed by employing positive (for all CYPs) and negative (for CYP2A6, 2C19 and 2E1) ionization mode in liquid chromatography tandem mass spectrometry (API4000, Applied Biosystems, USA). The peak area ratio of analyte to IS was used for calculations. An isocratic method comprising 5 mM ammonium formate and ACN (40∶60) with 0.05% formic acid was used for elution. For CYP2C19, a mobile phase consisting of 5 mM ammonium formate and ACN (30∶70) was used. The analytes and internal standards were retained on BDS Hypersil Phenyl (150×4.6 mm, 5 µ, Thermo, USA) column. A flow rate of 0.5 mL/min (CYP1A2), 0.6 mL/min (CYP2C19, CYP2E1), 0.7 mL/min (CYP2C9), 0.8 mL/min (CYP2A6, CYP3A), 1.0 mL/min (CYP2B6, CYP2C8, CYP2D6) was maintained using Shimadzu Prominence solvent delivery system (LC-20AD). The mobile phase was degassed using degasser (DGU-20A3), samples were loaded into autosampler (SIL-HTc) and the column temperature was maintained at 40°C by column oven (CTO-20A). […]

[4] = molecular target: CYP2C19 (Homo sapiens, UniProt P33261); test: CYP2C19 inhibition in human liver microsomes (substrate (S)-mephenytoin); assay type: in vitro ADME
Experimental: as §5, §7, §8

[5] = molecular target: T2, CYP3A4 (Homo sapiens, UniProt P08684); test: CYP3A4 inhibition in human liver microsomes (substrate midazolam); assay type: in vitro ADME
Experimental: as §5, §7, §8

[6] = molecular target: T3, CYP2B6 (Homo sapiens, UniProt P20813); test: CYP2B6 inhibition in human liver microsomes (substrate bupropion); assay type: in vitro ADME
T3 sequence (P20813 1-491): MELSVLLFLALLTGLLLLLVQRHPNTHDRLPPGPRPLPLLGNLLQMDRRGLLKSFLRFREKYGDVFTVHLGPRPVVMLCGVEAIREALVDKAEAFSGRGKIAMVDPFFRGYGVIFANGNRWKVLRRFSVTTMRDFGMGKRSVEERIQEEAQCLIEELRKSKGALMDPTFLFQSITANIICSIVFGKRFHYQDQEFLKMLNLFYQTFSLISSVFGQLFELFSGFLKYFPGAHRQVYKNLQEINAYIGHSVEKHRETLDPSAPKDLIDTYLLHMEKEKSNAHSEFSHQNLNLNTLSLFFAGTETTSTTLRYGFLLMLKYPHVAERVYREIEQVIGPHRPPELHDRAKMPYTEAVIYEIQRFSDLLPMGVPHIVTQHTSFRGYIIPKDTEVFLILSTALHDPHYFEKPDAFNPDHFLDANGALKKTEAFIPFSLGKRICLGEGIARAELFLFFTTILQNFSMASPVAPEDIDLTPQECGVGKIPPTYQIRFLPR
Experimental: as §5, §6

[7] = human, in vivo, po; cited from earlier work
[8] = test system: Caco-2 monolayer; test: Caco-2 permeability assay; details: 10 µM
Experimental: (§9) Caco-2 cells were seeded on tissue culture inserts at a density of 80,000 cells/insert. The cells were maintained for 21 days in culture medium to enable differentiation and formation of the monolayer. The culture medium was changed every alternate day.
(§10) Stock solutions (1 mM) of individual gingerols were prepared in DMSO, which were then spiked into the buffer to obtain a final assay concentration of 10 µM. HBSS-HEPES buffer was prepared by dissolving 9.7 g Hank's balanced salts, 0.37 g sodium bicarbonate, 3.50 g glucose and 2.38 g HEPES in Milli-Q water (1 L). The pH of the buffer was adjusted to 7.4 using either 1N hydrochloric acid or 1N sodium hydroxide.
(§11) Permeability of gingerols (10 µM) was determined in apical to basolateral (A-B) and basolateral to apical (B-A) directions. Transport studies were conducted between 21–25 days post seeding in 12-well Transwell inserts. Following pre-incubation in HBSS-HEPES buffer at 37°C, 5% CO2 for 30 min, buffer was removed and gingerols spiked buffer was added to each donor compartment (triplicate wells). Blank HBSS-HEPES buffer containing 1% DMSO was added to the receiver compartment. Samples were withdrawn from the receiver chamber at 30, 60, 90, and 120 min, and from the donor chamber at 0 and 120 min. The samples were collected in tubes containing equal volume of ACN. The withdrawn volume was replaced with buffer containing 1% DMSO. At the end of the experiment, cells were washed with ice-cold buffer and lysed with ACN to assess cell accumulation and estimate the recovery. Monolayers with transepithelial electrical resistance (TEER) above 300 Ωcm^2 were considered for the assay and after the assay TEER values were above 300 Ωcm^2 confirming the monolayer integrity during the experiment.
(§12) Samples were processed using protein precipitation method and analyzed using LC/MS/MS. A calibration curve (CC) of 5 nM to 10,000 nM range was employed to quantify the samples. […] Separation was achieved using Zorbax C18 column (50×4.6 mm, 3.5 µ, Agilent) for 8G, 10G, 6S and using Hypurity C18 column (100×4.6 mm, 5 µ, Thermo) for 6G. An injection volume of 20 µL was used for all samples and a flow rate of 0.6 mL/min (6G) and 1 mL/min (8G, 10G and 6S) was used for elution.
(§13) Cumulative amount of gingerols transported at each time point was plotted as function of time. The slope was used to calculate the rate of appearance of gingerols (dQ/dt).
(§14) Apparent permeability (Papp) was calculated using the formula [drawing 4] dQ/dt – rate of transport to receiver side

[9] = Caco-2 permeability assay; details: human; for recovery at 120 min, 10 µM: Caco-2, pH 7.4, Mass Balance (recovery); for Papp at 120 min, 10 µM: Caco-2, pH 7.4, Papp, n = 3, mean ± SD
Experimental: as §9, §10, §11, §12, §13, §14

[10] = molecular target: T2, CYP3A4; test: CYP3A4 inhibition in human liver microsomes (substrate testosterone); assay type: in vitro ADME
Experimental: as §5, §6

[11] = molecular target: T4, CYP2C8 (Homo sapiens, UniProt P10632); test: CYP2C8 inhibition in human liver microsomes (substrate amodiaquine); assay type: in vitro ADME; details: IC50 CYP2C8, human liver microsomes; substrate amodiaquine; gingerols and GE
T4 sequence (P10632 1-490): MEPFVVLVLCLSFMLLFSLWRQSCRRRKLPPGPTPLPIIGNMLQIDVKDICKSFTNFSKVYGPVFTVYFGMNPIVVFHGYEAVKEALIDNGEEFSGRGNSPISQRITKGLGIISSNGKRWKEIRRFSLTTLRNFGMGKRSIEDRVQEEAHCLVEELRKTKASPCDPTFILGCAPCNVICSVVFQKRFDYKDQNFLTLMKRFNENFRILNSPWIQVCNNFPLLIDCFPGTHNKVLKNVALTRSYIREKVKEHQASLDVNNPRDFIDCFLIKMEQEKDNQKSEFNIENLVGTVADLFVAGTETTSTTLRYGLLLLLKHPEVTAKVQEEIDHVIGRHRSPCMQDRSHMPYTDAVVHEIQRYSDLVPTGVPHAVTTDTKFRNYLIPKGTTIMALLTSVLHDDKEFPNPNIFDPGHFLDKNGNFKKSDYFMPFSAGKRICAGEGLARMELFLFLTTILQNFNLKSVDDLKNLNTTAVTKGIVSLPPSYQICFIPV
Experimental: as §5, §6

[12] = molecular target: CYP2C9 (Homo sapiens, UniProt P11712); test: CYP2C9 inhibition in human liver microsomes (substrate diclofenac)
Experimental: as §1, §2
as §3, with “All the structures of inhibitors, substrates, metabolites and internal standards for each CYP enzyme are represented in Table S6 in File S1.” left out
as §4

[13] = molecular target: T5, CYP1A2 (Homo sapiens, UniProt P05177); test: CYP1A2 inhibition in human liver microsomes (substrate phenacetin); assay type: in vitro ADME
T5 construct: […]; tissue XenoTechLLC H0610
T5 sequence (P05177 1-516): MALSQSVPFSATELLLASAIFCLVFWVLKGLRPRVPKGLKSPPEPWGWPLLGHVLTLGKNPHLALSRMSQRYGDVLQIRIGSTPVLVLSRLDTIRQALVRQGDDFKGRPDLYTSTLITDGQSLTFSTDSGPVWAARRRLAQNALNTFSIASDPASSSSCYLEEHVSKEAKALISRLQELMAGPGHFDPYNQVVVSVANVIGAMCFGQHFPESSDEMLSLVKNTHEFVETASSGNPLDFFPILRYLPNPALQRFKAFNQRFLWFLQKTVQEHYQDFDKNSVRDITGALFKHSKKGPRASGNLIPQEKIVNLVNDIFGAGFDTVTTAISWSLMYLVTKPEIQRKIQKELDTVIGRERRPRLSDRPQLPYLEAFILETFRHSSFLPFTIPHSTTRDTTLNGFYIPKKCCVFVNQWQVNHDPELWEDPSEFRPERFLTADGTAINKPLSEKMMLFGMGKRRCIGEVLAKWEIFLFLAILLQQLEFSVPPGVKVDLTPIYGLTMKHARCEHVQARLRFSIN
Experimental: as §5, §6

Sequence of CYP2E1 (P05181 whole entry): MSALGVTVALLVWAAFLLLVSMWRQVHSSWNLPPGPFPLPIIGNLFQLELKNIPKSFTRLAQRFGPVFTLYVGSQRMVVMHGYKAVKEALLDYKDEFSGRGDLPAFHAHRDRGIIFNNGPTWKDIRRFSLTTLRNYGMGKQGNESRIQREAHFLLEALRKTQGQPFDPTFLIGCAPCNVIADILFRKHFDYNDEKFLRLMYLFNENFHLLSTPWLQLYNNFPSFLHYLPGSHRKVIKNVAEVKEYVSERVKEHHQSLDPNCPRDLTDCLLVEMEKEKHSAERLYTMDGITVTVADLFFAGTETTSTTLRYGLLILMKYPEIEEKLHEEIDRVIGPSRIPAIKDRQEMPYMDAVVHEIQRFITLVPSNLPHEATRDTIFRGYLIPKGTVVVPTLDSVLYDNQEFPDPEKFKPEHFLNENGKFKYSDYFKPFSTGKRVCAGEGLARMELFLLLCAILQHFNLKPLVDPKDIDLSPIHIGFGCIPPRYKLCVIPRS
T2 sequence (P08684 2-503): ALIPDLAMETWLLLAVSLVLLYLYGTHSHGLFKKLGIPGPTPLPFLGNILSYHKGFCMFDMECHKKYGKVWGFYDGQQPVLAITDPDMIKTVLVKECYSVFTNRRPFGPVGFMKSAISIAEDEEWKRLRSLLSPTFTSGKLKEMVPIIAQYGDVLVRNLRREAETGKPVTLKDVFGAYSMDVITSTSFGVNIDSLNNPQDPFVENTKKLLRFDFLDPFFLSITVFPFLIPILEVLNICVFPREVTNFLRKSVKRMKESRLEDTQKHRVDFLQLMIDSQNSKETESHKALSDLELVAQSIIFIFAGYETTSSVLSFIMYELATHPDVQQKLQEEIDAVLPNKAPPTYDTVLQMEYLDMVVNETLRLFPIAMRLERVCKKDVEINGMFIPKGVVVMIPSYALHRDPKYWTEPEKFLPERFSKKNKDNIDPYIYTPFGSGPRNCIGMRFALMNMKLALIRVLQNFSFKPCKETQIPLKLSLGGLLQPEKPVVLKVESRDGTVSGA
Sequence of CYP2C9 (P11712 whole entry): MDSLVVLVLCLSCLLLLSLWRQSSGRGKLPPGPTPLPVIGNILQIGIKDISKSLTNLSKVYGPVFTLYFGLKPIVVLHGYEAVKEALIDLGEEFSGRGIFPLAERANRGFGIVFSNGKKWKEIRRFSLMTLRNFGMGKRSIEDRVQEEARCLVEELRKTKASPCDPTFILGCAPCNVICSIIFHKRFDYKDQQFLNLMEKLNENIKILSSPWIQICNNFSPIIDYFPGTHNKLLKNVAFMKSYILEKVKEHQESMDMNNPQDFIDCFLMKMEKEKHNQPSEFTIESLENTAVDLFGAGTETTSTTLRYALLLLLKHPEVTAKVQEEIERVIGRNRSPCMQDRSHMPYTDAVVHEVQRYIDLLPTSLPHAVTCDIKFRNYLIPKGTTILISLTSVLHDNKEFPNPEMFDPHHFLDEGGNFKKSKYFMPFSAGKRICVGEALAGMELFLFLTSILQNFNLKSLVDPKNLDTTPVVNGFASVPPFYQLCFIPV
Sequence of CYP2C19 (P33261 whole entry): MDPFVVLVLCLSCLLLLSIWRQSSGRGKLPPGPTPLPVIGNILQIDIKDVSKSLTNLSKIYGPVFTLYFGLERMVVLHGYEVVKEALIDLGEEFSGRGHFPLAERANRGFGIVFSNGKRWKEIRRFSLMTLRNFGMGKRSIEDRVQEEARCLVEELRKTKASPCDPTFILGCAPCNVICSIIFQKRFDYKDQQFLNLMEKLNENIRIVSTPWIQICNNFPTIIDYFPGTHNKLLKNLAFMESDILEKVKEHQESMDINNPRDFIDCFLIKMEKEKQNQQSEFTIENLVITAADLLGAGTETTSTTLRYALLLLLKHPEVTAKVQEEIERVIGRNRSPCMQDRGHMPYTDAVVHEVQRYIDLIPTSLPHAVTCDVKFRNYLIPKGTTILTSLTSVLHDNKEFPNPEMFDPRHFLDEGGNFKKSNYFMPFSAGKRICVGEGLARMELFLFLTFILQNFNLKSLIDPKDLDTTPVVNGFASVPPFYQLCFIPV
Sequence of CYP2D6 (P10635 whole entry): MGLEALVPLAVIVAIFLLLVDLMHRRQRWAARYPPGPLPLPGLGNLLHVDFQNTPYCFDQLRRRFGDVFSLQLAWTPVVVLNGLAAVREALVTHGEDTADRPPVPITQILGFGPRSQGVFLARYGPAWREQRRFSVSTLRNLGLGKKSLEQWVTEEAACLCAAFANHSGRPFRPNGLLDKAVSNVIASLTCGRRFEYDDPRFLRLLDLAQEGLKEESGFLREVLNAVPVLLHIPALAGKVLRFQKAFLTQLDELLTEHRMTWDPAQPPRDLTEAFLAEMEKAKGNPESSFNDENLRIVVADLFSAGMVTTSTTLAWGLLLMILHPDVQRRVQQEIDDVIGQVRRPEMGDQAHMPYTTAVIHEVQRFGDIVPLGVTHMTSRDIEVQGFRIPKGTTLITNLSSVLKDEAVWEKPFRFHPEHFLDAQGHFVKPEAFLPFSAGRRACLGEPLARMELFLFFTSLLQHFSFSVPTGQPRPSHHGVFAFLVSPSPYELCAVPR

Compound: N[C@@H]1C[C@H]1c1ccccc1 (racemic) [Tranylcypromine, reference compound]
- IC50 CYP2E1 [1]: 0.5793 µg/mL (≈ 4.35 µM)
- IC50 CYP2E1 ([1]; listed as tranylcypromine): 0.579 µg/mL (≈ 4.35 µM)
- IC50 CYP2A6 ([2]; human liver microsomes, substrate coumarin, positive control): 0.0084 µg/mL (≈ 0.0631 µM)
- CYP2A6 inhibition, fold more effective than the test compounds ([2]; positive control vs test compounds): ~4000 fold

Compound: CCCCC[C@H](O)CC(=O)CCc1ccc(O)c(OC)c1 [6G, 6-gingerol]
- IC50 [1]: > 98.5 µM
- IC50 [3]: > 98.5 µM
- IC50 [4]: 10.9 µM
- IC50 [2]: > 98.5 µM
- IC50 [5]: > 98.5 µM
- IC50 [6]: 51 µM
- Cmax / circulating concentration in humans [7]: 850 ± 430 ng/mL
- Intracellular (cell) accumulation ([8]; direction not given): < 5%
- Intracellular accumulation ([8]; A→B): 2%
- Intracellular accumulation ([8]; B→A): 5%
- efflux ratio at 120 min, 10 µM ([9]; Caco-2, pH 7.4, Efflux Ratio): < 2
- recovery at 120 min, 10 µM ([9]; A→B): < 50%
- recovery at 120 min, 10 µM ([9]; B→A): 77%
- Papp at 120 min, 10 µM ([9]; A→B): > 10 ×10⁻⁶ cm/s
- Papp at 120 min, 10 µM ([9]; B→A): > 10 ×10⁻⁶ cm/s
- IC50 [10]: 37.4 µM
- IC50 [11]: 22.1 µM
- IC50 [12]: 27.9 µM
- IC50 [13]: 19 µM
